Structures are written as SMILES.

With `*C(=O)Nc1ccc(Oc2ccc(Oc3ccc(NC(=O)c4ccc5c(c4)C(=O)N(c4ccc(Oc6ccc(C7(c8ccc(Oc9ccc(N%10C(=O)c%11ccc(*)cc%11C%10=O)cc9)cc8)CC8CC7C7CCCC87)cc6)cc4)C5=O)cc3)c(C(C)(C)C)c2)cc1` (repeat unit), the glass transition temperature turned out to be 275.00 °C. Under `*C(=O)Nc1ccc(Oc2cccc(Oc3ccc(NC(=O)c4ccc5c(c4)C(=O)N(c4ccc(Oc6cccc(Oc7ccc(N8C(=O)c9ccc(*)cc9C8=O)cc7)c6C#N)cc4)C5=O)cc3)c2C#N)cc1` (repeat unit) stands 220.00 °C; under `*C(=O)Oc1ccc(OC(=O)c2ccc3c(c2)C(=O)N(C2CCC(N4C(=O)c5ccc(*)cc5C4=O)CC2)C3=O)cc1` (repeat unit), 360.00 °C. The molecule `*CCCOCCCCOCCCN1C(=O)c2ccc(C(=O)Oc3ccc(OC(=O)c4ccc5c(c4)C(=O)N(*)C5=O)c(-c4ccccc4)c3)cc2C1=O` (repeat unit) came in with a glass transition temperature of 71.00 °C. As for `*CCOCCOCCN1C(=O)c2ccc(C(=O)Oc3ccc(OC(=O)c4ccc5c(c4)C(=O)N(*)C5=O)cc3)cc2C1=O` (repeat unit), the glass transition temperature was determined as 105.00 °C. Under `*O[Si](C)(C)CCCCCCOC(=O)C(C)Oc1ccc(OC(=O)c2ccc(-c3ccc(OCCCCCCCCCC[Si](*)(C)C)cc3)cc2)cc1` (repeat unit) stands 35.00 °C; under `*O[Si](C)(C)CCCCCCOC(=O)C(C)Oc1ccc(OC(=O)c2ccc(-c3ccc(OCCCCCCCCCC[Si](*)(C)C)cc3)cc2)cc1[N+](=O)[O-]` (repeat unit), 20.00 °C; under `*Oc1c(C)c(C)c(NC(=O)c2ccc(C(=O)Nc3ccc(*)cc3)cc2)c(C)c1C` (repeat unit), 333.00 °C. Under `*Oc1c(F)c(F)c(COC(c2cccc(C(OCc3c(F)c(F)c(Oc4ccc(Cc5ccc(*)cc5)cc4)c(F)c3F)(C(F)(F)F)C(F)(F)F)c2)(C(F)(F)F)C(F)(F)F)c(F)c1F` (repeat unit) stands 94.00 °C; under `*Oc1ccc(C(=O)c2ccc(Oc3ccc(C(=O)c4ccc(Oc5cccc(Cc6cccc(*)c6)c5)cc4)cc3)cc2)cc1` (repeat unit), 123.00 °C. Turning to `*Oc1ccc(OC(=O)c2cc(OCCCCCCCCCCC(F)(F)C(F)(F)C(F)(F)C(F)(F)C(F)(F)C(F)(F)C(F)(F)C(F)(F)C(F)(F)C(F)(F)F)cc(C(*)=O)c2)cc1` (repeat unit), the glass transition temperature worked out at 137.00 °C.

With `*Oc1ccc(OC(=O)c2cc(OCCCCCCCCCCOCC3CCCN3c3ccc([N+](=O)[O-])cc3)c(C(*)=O)cc2OCCCCCCCCCCOCC2CCCN2c2ccc([N+](=O)[O-])cc2)cc1` (repeat unit), the glass transition temperature was found to be 30.00 °C. As to `*Oc1ccc(OC(=O)c2cc(OCCCCCCOCC3CCCN3c3ccc([N+](=O)[O-])cc3)c(C(*)=O)cc2OCCCCCCOCC2CCCN2c2ccc([N+](=O)[O-])cc2)cc1` (repeat unit), the glass transition temperature amounted to 56.00 °C. Under `*Oc1ccc(OC(=O)c2cc(OCCCCCOCC3CCCN3c3ccc([N+](=O)[O-])cc3)c(C(*)=O)cc2OCCCCCOCC2CCCN2c2ccc([N+](=O)[O-])cc2)cc1` (repeat unit) stands 63.00 °C; under `*Oc1ccc(OC(=O)c2ccc(-c3ccc(C(*)=O)cc3)cc2-c2ccccc2)c2ccccc12` (repeat unit), 165.00 °C. Under `*Oc1ccc(OC(=O)c2ccc(-c3ccc(C(*)=O)cc3)cc2-c2ccccc2)cc1-c1ccccc1` (repeat unit) stands 148.00 °C; under `*Oc1ccc(OC(=O)c2ccc(C(*)=O)cc2)cc1C1CCCCCCC1` (repeat unit), 213.00 °C; under `*Oc1ccc(OC(=O)c2ccc(C(*)=O)cc2Oc2ccc(-c3ccccc3)cc2)cc1` (repeat unit), 117.00 °C.

Molecule `*Oc1ccc(OC(=O)c2ccc(C(*)=O)cc2Oc2ccc(Br)cc2)cc1` (repeat unit) yielded a glass transition temperature of 108.00 °C. In turn, `*Oc1ccc(OC(=O)c2ccc(C(*)=O)cc2Oc2ccc(Cl)cc2)cc1` (repeat unit) came in with a glass transition temperature of 107.00 °C. With `*Oc1ccc(OC(=O)c2ccc(C(*)=O)cc2Sc2ccc(Cl)cc2)cc1` (repeat unit), the glass transition temperature was 140.00 °C. Molecule `*Oc1ccc(OC(=O)c2ccc(C(*)=O)cc2Sc2ccc3ccccc3c2)cc1` (repeat unit) registered a glass transition temperature of 148.00 °C. On to `*Oc1ccc(OC(=O)c2cccc(Oc3cccc(C(*)=O)c3)c2)cc1` (repeat unit), for which the glass transition temperature turned out to be 119.00 °C. In the case of `*Oc1ccc(Oc2ccc(NC(=O)c3cccc(C(=O)Nc4ccc(*)cc4)c3)cc2)cc1C(C)(C)C` (repeat unit), the glass transition temperature is 208.00 °C.

Consider `*Oc1ccc2cc(Oc3ccc(S(=O)(=O)c4ccc(Oc5ccc(C(=O)c6ccc(*)cc6)cc5)cc4)cc3)ccc2c1` (repeat unit), for which the glass transition temperature stood at 199.00 °C. Then `*Oc1cccc(C(=O)c2ccc(Oc3ccc(C(=O)c4ccc(*)cc4)cc3)cc2)c1` (repeat unit), with 146.00 °C; and `*c1ccc(Oc2cc(C(C)(C)C)c(Oc3ccc(N4C(=O)c5ccc(-c6ccc7c(c6)C(=O)N(*)C7=O)cc5C4=O)cc3)cc2C(C)(C)C)cc1` (repeat unit), with 293.00 °C; and `*c1ccc(Oc2cc(C(C)(C)C)c(Oc3ccc(N4C(=O)c5ccc(Oc6ccc7c(c6)C(=O)N(*)C7=O)cc5C4=O)cc3)cc2C(C)(C)C)cc1` (repeat unit), with 242.00 °C. Then `*c1ccc(Oc2cc(C(C)(C)C)c(Oc3ccc(N4C(=O)c5ccc(S(=O)(=O)c6ccc7c(c6)C(=O)N(*)C7=O)cc5C4=O)cc3)cc2C(C)(C)C)cc1` (repeat unit), with 263.00 °C. For `*c1ccc(Oc2cc(C(C)(C)C)ccc2Oc2ccc(N3C(=O)c4ccc(-c5ccc6c(c5)C(=O)N(*)C6=O)cc4C3=O)cc2)cc1` (repeat unit), the glass transition temperature came out at 257.00 °C. As to `*c1ccc(Oc2ccc(N3C(=O)c4ccc(Oc5ccc(C(=O)c6ccc(Oc7ccc8c(c7)C(=O)N(*)C8=O)cc6)cc5)cc4C3=O)cc2)cc1` (repeat unit), the glass transition temperature is 210.00 °C. As to `*c1ccc(Oc2ccc(Oc3ccc(N4C(=O)c5ccc(Oc6ccc(C(c7ccccc7)(c7ccccc7)c7ccc(Oc8ccc9c(c8)C(=O)N(*)C9=O)cc7)cc6)cc5C4=O)cc3)c(C(C)(C)C)c2)cc1` (repeat unit), the glass transition temperature was 229.00 °C.

`*c1ccc(Oc2ccc(Oc3ccc(N4C(=O)c5ccc(Oc6ccc(C7(c8ccc(Oc9ccc%10c(c9)C(=O)N(*)C%10=O)cc8)CCC(C(C)(C)C)CC7)cc6)cc5C4=O)cc3)c(C(C)(C)C)c2)cc1` (repeat unit) showed a glass transition temperature of 233.00 °C.

On to `*c1ccc(Oc2cccc(Oc3ccc(N4C(=O)c5ccc(-c6ccc7c(c6)C(=O)N(*)C7=O)cc5C4=O)cc3)c2C#N)cc1` (repeat unit), for which the glass transition temperature came to 271.00 °C. As to `*c1ccc2c(c1)C(=O)N(c1ccc(Oc3ccc(N4C(=O)c5ccc(C(*)(C(F)(F)F)C(F)(F)F)cc5C4=O)cc3)c(OCCN(CC)c3ccc(/N=N/c4ccc([N+](=O)[O-])cc4)cc3)c1)C2=O` (repeat unit), the glass transition temperature turned out to be 202.00 °C.
